Source: patent EP1379135B1, “FORMULATIONS COMPRISING ENTRAPPED ACTIVE INGREDIENTS AND USES THEREOF” (THE SCRIPPS RESEARCH INSTITUTE, priority 2001, dated 2002)
“Also recorded” adds a separate entry of the source.

Assays:
[1] = test system: TNFα induced nitric oxide (NO) production in normal human articular chondrocytes; test: TNFα induced NO production in chondrocytes; assay type: cell-based
COX-2 mRNA = COX-2 mRNA expression in IL-1β stimulated chondrocytes (Northern Blot); assay type: cell-based, human
Protocol: Total RNA was isolated from 2 x 10^6 chondrocytes stimulated using the STAT-60 reagent (Tel-Test, Friendswood, TX). RNA for each sample was quantified photometrically, and 5 µg was separated on 1.2% agarose, 6% formaldehyde gels. After electrophoresis, the gels were photographed, and the RNA was transferred onto HybondN nylon membranes (BRL, Baithesburg, MD) by capillary blotting. Membranes were air-dried and incubated for 2 hrs at 80°C. Prehybridization was done for 2 hrs at 60°C in 5 x SCC, 1 mM EDTA, 0.2% SDS and 5 x Denhardt solution. Radio-labeled probe was added and hybridization was carried out overnight at 60°C. After hybridization, the filters were rinsed twice in 2 x SSC, 0.1% SDS, washed once in 2 x SCC, 0.1 % SDS at 60°C and once in 0.2 x SCC, 0.1 % SDS at 60°C. The membranes were covered with plastic wrap and exposed with an intensifying screen for 12 hr at -70°C. The probes used for the hybridization were prepared as described earlier (Geng et al., (1993) J. Immunol. 151:6692; Geller et al., (1993) Proc. Natl. Acad. Sci. USA 90:3491).

IL-6 = IL-6 production in IL-1β stimulated chondrocytes (ELISA); assay type: cell-based, human; details: p < 0.001
Protocol: Chondrocytes were plated at 40,000 cells/well in 96-well plates in the presence of 1 % FBS. After 48 h, the medium was changed, and the cells were stimulated with IL-1β (Sigma) at a concentration of 5 ng/ml for 24 h. NO production was detected as NO2 accumulation in the culture supernatants by the Griess reaction as described elsewhere (Heval et al., (1994) Methods Enzymol. 233:250). IL-6 in the culture supernatants was measured by ELISA (R&D Systems, Minneapolis, MN) in accordance with the supplier's protocol.

NF-κB = test: IL-1β-induced nuclear translocation of NF-κB (gel shift of nuclear extracts); assay type: cell-based, human
Protocol: Nuclear protein extracts were prepared as follows: 2 x 10^6 chondrocytes were stimulated as indicated. The cells were harvested by trypsinization, washed once with ice cold PBS and lysed in 10 mM Tris-HCl buffer pH 7.5 containing 2 mM MgCl2, 140 mM NaCl, 0.5 mM DTT, 0.05% Triton X-100, 0.5 mM PMSF, leupeptin 1 µg/ml and aprotinin 1 µg/ml. The nuclei were spun down, resuspended in 20 mM HEPES buffer pH 7.9, containing 25% glycerol, 420 mM NaCl, 1.5 mM MgCl2, 0.2 mM EDTA, 0.5 mM DTT, 0.5 mM PMSF, leupeptin 1 µg/ml and aprotinin 1 µg/ml, and rotated at 4°C for 30 minutes. After removal of the nuclear debris by centrifugation, the protein concentration of the lysate was determined by Bradford assay. Equal amounts of the nuclear extracts (2 µg) were incubated for 15 minutes at room temperature with poly-(dI-dC)poly-(dI-dC) (0.1 mg/ml), BSA (1 mg/ml), 1 x […] counts of double-stranded radiolabeled oligodeoxynucleotide containing the NF-κB consensus DNA binding site (sequence: 5'-[…]-3') in 20 mM HEPES buffer pH 7.9 containing 10% glycerol, 420 mM NaCl, 1.5 mM MgCl2, 0.2 mM EDTA, 0.5 mM DTT and 0.5 mM PMSF. For competition experiments, unlabeled NF-κB oligodeoxynucleotide or oligodeoxynucleotide containing the Oct-1 consensus sequence were added at 100-fold molar excess to the binding reactions 10 minutes prior to the addition of radiolabeled NFκB oligodeoxynucleotide. […]

JNK = test: IL-1β induced MAP kinase activation, JNK (phospho Western blot); assay type: cell-based, human; details: induced by IL-1β
Protocol: (§1) Whole cell extracts were prepared from 3 x 10^6 chondrocytes stimulated as described above by lysing the cells on the plate with ice cold lysis buffer (10 mM TrisHCl pH 7.6, 158 mM NaCl, 1 mM EDTA, 0.1% SDS, 1% Triton X-100, leupeptin […], aprotinin 1µg/ml, and 0.5 mM PMSF), which was added immediately before use. The lysates were transferred to Eppendorf tubes and centrifuged at 20,000 g for 30 min at 4 °C. The supernatants were transferred into fresh tubes, and the protein concentration was determined by Bradford assay. Similar amounts of protein were separated by 10% SDS PAGE and transferred to a nitrocellulose filter (Schleicher & Schuell, Keene, NH) by electroblotting. The filter was blocked overnight in 5% milk powder/TBS-T solution and then further incubated with one of the following antibodies: anti-iNOS (C-19, Santa Cruz Biotechnology, Inc., Santa Cruz, CA), anti-COX-2 (Cayman Chemical, Ann Arbor, MI), anti-COX-1 (H-3, Santa Cruz Biotechnology, Inc.), anti-phospho-JNK (phosphoThr 183 /Tyr 185, New England Biolabs, Inc., Beverly, MA), anti-phospho-p38MAP (phospho-Thr […]/Tyr 182, New England Biolabs, Inc.) or anti-phospho-ERK (phosphoThr 180/Tyr 182, New England Biolabs, Inc.) for 2 hrs. […]

p38 = test: IL-1β induced MAP kinase activation, p38 (phospho Western blot); assay type: cell-based, human; details: induced by IL-1β
Protocol: as §1

[2] = Induction of TGFα1 in chondrocytes with IL-1β; assay type: cell-based, human; details: together with IL-1β
bradykinin-induced pain = test: Bradykinin-induced pain after intra-articular administration (walking behavior pain score); assay type: in vivo; details: Wistar rats, Figure 7
Protocol: The purpose of this study was to investigate the analgesic effects of GlcNAc with or without liposomal formulations, injected intra-articularly into the joint of Wistar rats. Pain was induced by intra-articular administration of bradykinin. Adult male Wistar rats with a weight range from 220g to 250g were obtained from Laboratory Animals Centre, National University of Singapore. Bradykinin and GlcNAc were obtained from Sigma. The liposomes were prepared as described above. 50 µl of GlcNAc solution or an GIcNAc formulated liposome suspension was injected into a rat joint cavity. An equal volume of saline was given intra-articularly as a control. 50 µl of bradykinin (60 µg/ml or at the indicated concentration) was given intra-articularly at different time points following the administration of GlcNAc. Changes in walking behavior caused by intra-articular injection of bradykinin were used to define induced pain criteria in rats. The methods used to observe the pain response are defined in Table 2. The degree of pain was assigned a score according to the criteria in Table 3. Table 2 [table] [table]

CC(=O)N[C@H]1C(O)O[C@H](CO)[C@@H](O)[C@@H]1O (some centres unmarked) [GlcNAc, N-acetylglucosamine]
TNFα induced nitric oxide (NO) production [1]: inhibit | expression of COX-2 mRNA (COX-2 mRNA): inhibited | IL-6 production (IL-6): inhibited | IL-1β-induced nuclear translocation of NF-κB (NF-κB): did not affect | JNK MAP kinase activation (JNK): does not inhibit | p38 MAP kinase activation (p38): does not inhibit | induction of TGFα1 [2]: synergistic with IL-1β | analgesic effects on bradykinin-induced pain (pain scores) (bradykinin-induced pain): small, but statistically insignificantly, analgesic effects; also recorded: small, but statistically insignificant, analgesic effects
